Earlier results in patent US8158161B2, “Methods and pharmaceutical compositions useful for treating psoriasis” (S.U.L.V.E. Ltd., priority 2005, dated 2012).

System: K562 cells
Details: Leoni 1997

SMILES | rank among isothiocyanates tested as inhibitors of leukemic cell growth
C=CCN=C=S [2-Propenyl-isothiocyanate] | most potent inhibitors
S=C=NCc1ccccc1 [Benzyl-isothiocyanate] | most potent inhibitors
